Data reported in article PMC12136037, “Type II kinase inhibitors that target Parkinson’s disease–associated LRRK2” (Science Advances, 2025).

How the values were obtained:
Assay in all cases: DSF 100 kinase selectivity screen;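 further: compound tested at 20 µM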
Format in all cases: binding
[1] = molecular target: T1, ~100 representative kinases (Homo sapiens, UniProt O15164); conditions: Protein TIF1; DSF; average of three replicates
T1 construct: Recombinant protein kinase domains with a concentration of 2 μM
T1 sequence (O15164 1-1050): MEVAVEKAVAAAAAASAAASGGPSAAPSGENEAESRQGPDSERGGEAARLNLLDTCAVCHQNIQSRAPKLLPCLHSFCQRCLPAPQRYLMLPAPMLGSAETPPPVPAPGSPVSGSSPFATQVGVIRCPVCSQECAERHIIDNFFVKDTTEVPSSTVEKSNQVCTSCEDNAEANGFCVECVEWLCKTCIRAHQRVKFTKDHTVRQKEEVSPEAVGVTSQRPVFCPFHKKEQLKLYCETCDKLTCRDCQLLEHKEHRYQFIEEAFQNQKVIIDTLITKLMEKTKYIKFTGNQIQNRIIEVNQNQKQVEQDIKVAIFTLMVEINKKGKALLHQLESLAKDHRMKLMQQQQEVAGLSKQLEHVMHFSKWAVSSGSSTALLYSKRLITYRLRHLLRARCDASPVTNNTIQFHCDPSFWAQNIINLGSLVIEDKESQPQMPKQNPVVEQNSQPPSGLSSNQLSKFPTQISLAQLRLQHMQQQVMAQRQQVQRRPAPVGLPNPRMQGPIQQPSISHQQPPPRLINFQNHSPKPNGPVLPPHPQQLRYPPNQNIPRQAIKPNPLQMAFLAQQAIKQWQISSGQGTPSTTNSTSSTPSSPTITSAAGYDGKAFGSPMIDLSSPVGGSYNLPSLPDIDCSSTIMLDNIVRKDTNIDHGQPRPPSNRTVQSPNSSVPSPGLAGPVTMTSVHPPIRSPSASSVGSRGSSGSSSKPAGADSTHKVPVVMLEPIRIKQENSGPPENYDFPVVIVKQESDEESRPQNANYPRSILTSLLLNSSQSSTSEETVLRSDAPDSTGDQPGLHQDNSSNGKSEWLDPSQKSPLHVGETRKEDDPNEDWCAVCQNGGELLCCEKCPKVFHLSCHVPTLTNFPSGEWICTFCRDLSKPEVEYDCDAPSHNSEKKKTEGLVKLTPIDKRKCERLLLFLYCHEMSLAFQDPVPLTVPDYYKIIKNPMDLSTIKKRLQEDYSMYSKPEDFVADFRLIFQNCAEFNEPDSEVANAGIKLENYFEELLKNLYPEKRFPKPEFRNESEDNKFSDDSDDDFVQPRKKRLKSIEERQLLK
Summary of the method: (§1)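 Each kinase domain, at 2 μM, is mixed with 20 μM test compound and SYPRO Orange in Hepes (20 mM, pH 7.5) with 500 mM NaCl. Temperature is then raised at 3°C/min and fluorescence-monitored unfolding yields the melting temperature change, ΔTm in degrees Celsius.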

[2] = molecular target: T2, ~100 representative kinases (Homo sapiens, UniProt O75385); conditions: Protein ULK1; DSF; average of three replicates
T2 construct: Recombinant protein kinase domains with a concentration of 2 μM
T2 sequence (O75385 1-1050): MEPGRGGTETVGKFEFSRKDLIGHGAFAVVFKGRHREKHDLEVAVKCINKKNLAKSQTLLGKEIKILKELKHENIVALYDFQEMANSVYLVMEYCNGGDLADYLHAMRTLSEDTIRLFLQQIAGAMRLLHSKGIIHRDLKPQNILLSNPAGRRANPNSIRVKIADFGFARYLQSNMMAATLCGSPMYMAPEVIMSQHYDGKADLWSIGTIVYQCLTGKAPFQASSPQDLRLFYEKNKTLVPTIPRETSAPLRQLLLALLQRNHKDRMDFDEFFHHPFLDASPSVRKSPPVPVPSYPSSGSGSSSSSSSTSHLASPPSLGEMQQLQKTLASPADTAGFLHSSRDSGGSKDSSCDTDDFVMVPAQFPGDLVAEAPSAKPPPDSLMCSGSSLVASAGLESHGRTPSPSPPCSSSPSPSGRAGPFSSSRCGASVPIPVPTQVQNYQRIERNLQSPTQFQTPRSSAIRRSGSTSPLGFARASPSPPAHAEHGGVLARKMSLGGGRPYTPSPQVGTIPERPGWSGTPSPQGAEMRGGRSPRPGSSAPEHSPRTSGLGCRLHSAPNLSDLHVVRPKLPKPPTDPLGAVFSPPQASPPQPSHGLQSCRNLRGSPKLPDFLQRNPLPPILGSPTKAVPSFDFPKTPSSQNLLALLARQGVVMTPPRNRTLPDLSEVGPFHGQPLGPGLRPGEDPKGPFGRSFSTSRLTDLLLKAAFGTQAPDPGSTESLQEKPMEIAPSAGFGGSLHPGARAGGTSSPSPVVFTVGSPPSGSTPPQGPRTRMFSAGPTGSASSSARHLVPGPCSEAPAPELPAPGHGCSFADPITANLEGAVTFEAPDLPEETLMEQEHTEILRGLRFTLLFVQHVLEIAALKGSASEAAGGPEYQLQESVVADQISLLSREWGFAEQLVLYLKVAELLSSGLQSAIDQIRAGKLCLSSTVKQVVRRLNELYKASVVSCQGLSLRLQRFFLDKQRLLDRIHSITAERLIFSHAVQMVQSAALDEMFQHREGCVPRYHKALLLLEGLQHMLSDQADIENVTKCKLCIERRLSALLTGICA
Summary of the method: as §1

[3] = molecular target: T3, ~100 representative kinases (Homo sapiens, UniProt P22607); conditions: protein FGFR3; average of three replicates
T3 construct: Recombinant protein kinase domains with a concentration of 2 μM
Summary of the method: as §1

[4] = molecular target: T4, ~100 representative kinases (Homo sapiens, UniProt Q96GD4); conditions: Protein AURKB; average of three replicates
T4 construct: Recombinant protein kinase domains with a concentration of 2 μM
Summary of the method: as §1

[5] = molecular target: T5, ~100 representative kinases (Homo sapiens, UniProt Q96KB5); conditions: Protein TOPK; DSF; average of three replicates
T5 construct: Recombinant protein kinase domains with a concentration of 2 μM
T5 sequence (Q96KB5 1-322): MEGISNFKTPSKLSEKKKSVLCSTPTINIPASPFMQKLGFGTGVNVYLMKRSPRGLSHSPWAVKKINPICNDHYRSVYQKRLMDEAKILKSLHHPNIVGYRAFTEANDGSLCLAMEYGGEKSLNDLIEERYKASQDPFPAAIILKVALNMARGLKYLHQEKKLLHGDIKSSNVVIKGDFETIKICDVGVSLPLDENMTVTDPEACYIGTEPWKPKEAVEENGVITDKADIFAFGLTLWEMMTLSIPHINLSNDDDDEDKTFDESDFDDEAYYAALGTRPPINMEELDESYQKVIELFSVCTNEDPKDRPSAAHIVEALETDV
Summary of the method: as §1

[6] = molecular target: T6, ~100 representative kinases (Homo sapiens, UniProt Q02750); conditions: protein MAP2K1; average of three replicates
T6 construct: Recombinant protein kinase domains with a concentration of 2 μM
Summary of the method: as §1

T6 sequence (Q02750 whole entry, the tested form may be a part): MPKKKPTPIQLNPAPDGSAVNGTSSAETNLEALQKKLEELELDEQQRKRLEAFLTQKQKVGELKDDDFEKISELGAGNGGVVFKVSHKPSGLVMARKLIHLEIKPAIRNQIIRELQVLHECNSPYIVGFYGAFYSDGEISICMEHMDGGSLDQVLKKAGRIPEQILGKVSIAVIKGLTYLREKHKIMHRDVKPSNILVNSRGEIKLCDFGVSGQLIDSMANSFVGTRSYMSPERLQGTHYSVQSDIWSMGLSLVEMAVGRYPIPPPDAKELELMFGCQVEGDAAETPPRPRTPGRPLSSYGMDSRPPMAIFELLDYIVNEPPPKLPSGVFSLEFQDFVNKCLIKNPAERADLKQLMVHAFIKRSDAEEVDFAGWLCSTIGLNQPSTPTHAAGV
T4 sequence (Q96GD4 whole entry, the tested form may be a part): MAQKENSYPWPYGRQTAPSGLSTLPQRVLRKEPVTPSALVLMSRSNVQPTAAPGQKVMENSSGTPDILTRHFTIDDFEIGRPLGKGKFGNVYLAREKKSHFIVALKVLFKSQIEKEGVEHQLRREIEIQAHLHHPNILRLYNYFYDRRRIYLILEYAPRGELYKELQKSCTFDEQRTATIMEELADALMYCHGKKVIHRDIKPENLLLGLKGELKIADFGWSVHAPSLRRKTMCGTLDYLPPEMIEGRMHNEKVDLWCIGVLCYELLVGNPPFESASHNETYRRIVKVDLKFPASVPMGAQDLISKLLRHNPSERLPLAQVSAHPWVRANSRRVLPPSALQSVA
T3 sequence (P22607 23-806): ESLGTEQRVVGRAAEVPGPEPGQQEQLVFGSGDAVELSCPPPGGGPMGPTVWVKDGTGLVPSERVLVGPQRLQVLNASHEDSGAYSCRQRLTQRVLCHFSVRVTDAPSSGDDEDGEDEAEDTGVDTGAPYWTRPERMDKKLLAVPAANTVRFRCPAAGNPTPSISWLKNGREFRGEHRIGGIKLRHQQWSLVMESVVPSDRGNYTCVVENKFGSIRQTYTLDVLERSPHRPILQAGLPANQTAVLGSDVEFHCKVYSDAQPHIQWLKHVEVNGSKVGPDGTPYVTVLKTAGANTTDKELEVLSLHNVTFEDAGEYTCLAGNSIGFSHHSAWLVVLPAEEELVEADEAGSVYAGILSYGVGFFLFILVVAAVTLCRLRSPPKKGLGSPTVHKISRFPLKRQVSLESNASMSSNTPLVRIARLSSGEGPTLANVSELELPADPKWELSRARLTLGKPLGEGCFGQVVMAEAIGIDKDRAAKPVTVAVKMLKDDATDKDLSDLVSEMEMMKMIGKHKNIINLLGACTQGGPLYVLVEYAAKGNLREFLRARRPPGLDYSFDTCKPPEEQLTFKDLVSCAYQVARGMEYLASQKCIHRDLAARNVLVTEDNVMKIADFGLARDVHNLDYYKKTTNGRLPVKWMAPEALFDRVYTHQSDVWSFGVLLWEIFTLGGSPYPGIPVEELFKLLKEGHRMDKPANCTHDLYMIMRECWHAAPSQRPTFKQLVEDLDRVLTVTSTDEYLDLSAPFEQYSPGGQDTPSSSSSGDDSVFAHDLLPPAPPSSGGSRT

Compound | dTm [1] [K] | dTm [2] [K] | dTm [3] [K] | dTm [4] [K] | dTm [5] [K] | dTm [6] [K]
Cc1ccc(C(=O)Nc2ccc(CN3CCN(C)CC3)c(C(F)(F)F)c2)cc1C#Cc1c[nH]c2ncnc(N3CCOCC3)c12 [Compound 1] | 0.45 | 6.89 | 4.20 | 1.01 | 2.13 | 
CCNc1nc(Nc2cc(F)c(C(=O)N3CCOCC3)cc2OC)ncc1C(F)(F)F [GNE-7915] | -0.22 | 1.06 | 1.40 | -1.42 | 0.03 | 0.0455
Cc1ccc(C(=O)Nc2ccc(CN3CCN(C)CC3)c(C(F)(F)F)c2)cc1C#Cc1cnc2[nH]ncc2c1 [GZD-824, reference compound] | 0.34 | 6.60 | 14.11 | 1.02 | 4.33 | 0.63
C[C@@H]1CN(c2cc(-c3n[nH]c4ccc(OC5(C)CC5)cc34)ncn2)C[C@H](C)O1 [MLi2] | 0.28 | 0.01 | 0.31 | -0.83 | 0.0743 | -0.0332
Cn1cc(-c2c[nH]c3ncnc(N4CCOCC4)c23)cc1C#N [PFE-360] | 0.08 | 1.48 | 2.13 | 2.36 | 0.66 | 0.65
Cc1ccc(C(=O)Nc2ccc(CN3CCN(C)CC3)c(C(F)(F)F)c2)cc1C#Cc1cnc2cccnn12 [Ponatinib, reference compound] | 0.0214 |  | 14.03 | 0.49 | 2.32 | 
